Reference: publication PMC6222871, “Suppression of Hepatitis C Virus Genome Replication and Particle Production by a Novel Diacylglycerol Acyltransferases Inhibitor” (Molecules : A Journal of Synthetic Chemistry and Natural …, 2018)
Where two headings read alike, the source gives them in different places.

Key:
[1] = test system: HCV genotype 2a (Huh7.5-J6/JFH1); assay: HCV particle production: infectivity of supernatant on naive Huh7.5 cells by real-time RT-PCR; type: cell-based, hepatitis C virus; settings: 10 μM
Experimental: A922500, a commercially available DGAT-1-specific inhibitor was used as a positive control [10]. […] Therefore, we decided to examine effects of these twelve DGAT inhibitors on HCV particle production as well as RNA genome replication in parallel. For this purpose, we transfected Huh7.5 cells with in vitro-transcribed genotype 2a HCV RNAs (Huh7.5-J6/JFH1) [16] and treated them with each DGAT inhibitor for 6 and 72 h at 10 μM. HCV genome replication as well as host GAPDH RNA levels was quantitated by a real-time RT-PCR analysis. For assessment of HCV particle production, we harvested and filtered the supernatant from Huh7.5-J6/JFH1 cells treated with DGAT inhibitors and incubated the supernatant with naïve huh7.5 cells for 72 h. Then, infectivity was measured by a real-time RT-PCR analysis.
Huh7.5-J6/JFH-1 cells were seeded into 6-well plates at a density of 3 × 10^5 cells per well with DMEM containing 10% FBS. […] Total RNAs were extracted from treated cells and virus-containing media were harvested at each time point. Naïve Huh7.5 cells were infected with these virus-containing media after concentration with centricons.

[2] = MTT-based cell viability assay (EZ-CYTOX); settings: human
Experimental: (§1) To order to study impacts of DGAT inhibitors on HCV genome replication independently of the particle production, we decided to examine effects of these twelve DGAT inhibitors on the levels of viral RNA genome and cell viability in parallel. […] Then, we treated them with an increasing concentration of each DGAT inhibitor. Then, luciferase and MTT-based cell viability assays were performed to determine EC50 and CC50 (cytotoxic concentration required to kill 50% of treated cells) values, respectively.
(§2) Cell viability was measured with EZ-CYTOX (10% tetrazolium salt; Dogen, Gyeonggi-do, Korea) as described previously. Anti-HCV replication analysis using a luciferase assay was conducted as previously described.

recombinant DGAT-2 = test system: recombinant DGAT-2; set-up: method as in PMID 23242135; settings: cited from earlier work
[3] = test system: luciferase-linked genotype 2a HCV RNAs; assay: microbe, parasite or virus in culture; type: cell-based, hepatitis C virus; settings: read-out: EC50 (HCV replication)
Experimental: as §1, §2

[4] = test system: DGATs (rat liver microsome); set-up: method as in PMID 23141914, PMID 23242135; settings: cited from earlier work
recombinant DGAT-1 = test system: recombinant DGAT-1; set-up: method as in PMID 23242135; settings: recombinant DGAT-1, [14C] oleoyl-CoA as acyl-donor; cited from earlier work
HepG2 cells = test system: HepG2 cells; set-up: method as in PMID 23242135; settings: [14C] glycerol as substrate; cited from earlier work
[5] = test system: HCV NS3 (Huh7.5-J6/JFH1, genotype 2a); assay: western blot of HCV NS3 protein in Huh7.5-J6/JFH1 cells; settings: positive control
Experimental: Due to the tight coupling of viral genome replication to its protein expression, inhibition of viral RNA genome replication leads to a subsequent reduction of viral protein expression.
(A) Dose-dependent western blot analysis of Huh7.5-J6/JFH1 cells treated with increasing concentrations of 10j for 72 h by measuring protein expression levels of HCV NS3 relative to the β-actin. Daclatasvir, an NS5A inhibitor was used as a positive control. (B) Time-dependent western blot analysis of J6/JFH1 RNA-transfected Huh7.5 cells treated with 8 μM of 10j for increasing periods of time analyzed by measuring protein expression levels of HCV NS3 relative to the β-actin. (C,D) Same experiments were performed as in (A,B) to study effects of 10j on the expression levels of the NS5A protein of Huh7.5-Bart79I cells in a dose- as well as time-dependent manners.
Western blot analysis of Huh7.5-J6/JFH1 or Bart79I cells treated with 10j was conducted as previously described. Relative amounts of HNF4α proteins were quantified by using an HNF4α mouse monoclonal antibody (M04), clone 4E2 (Abnova) with the dilution of 1:1000.

[6] = Hepatitis C virus, Huh7.5, luciferase-linked genotype 2a HCV RNA in Huh7.5 cells

Row | Structure (SMILES) | effect on HCV particle production ([1]; 6 h (Figure 1B)) | effect on HCV particle production ([1]; 72 h (Figure 1D)) | CC50 [2] | IC50 (recombinant DGAT-2) | EC50 [3, 6] | IC50 [4] | IC50 (recombinant DGAT-1) | TG % (10 μM in HepG2), relative [14C] triglyceride percentage (HepG2 cells) | EC50 ([3]; luciferase-linked genotype 2a HCV RNA in Huh7.5 cells) | expression of viral proteins [5]
1 | CC(C)NC(=O)c1cccc(NC(=O)/C=C/c2cn(C(=O)OC(C)(C)C)c3ccccc23)c1 [5a] | able to block HCV particle production | suppress the viral particle production | 3.7 µM | 6.9 µM | 1.9 µM | 8.8 µM | > 100 µM |  |  | 
2 | CC(C)(C)OC(=O)n1cc(/C=C/C(=O)Nc2cccc(C(=O)N3CCCC3)c2)c2ccccc21 [5c] |  | suppress the viral particle production | > 10 µM | 6.8 µM | > 10 µM | 13.2 µM | 89.1 µM |  |  | 
3 | CC(C)(C)OC(=O)n1cc(/C=C/C(=O)Nc2cccc(C(=O)NCc3ccco3)c2)c2ccccc21 [5h] | able to block HCV particle production | suppress the viral particle production | 5.1 µM | 6.9 µM | 2.1 µM | 2.5 µM | > 100 µM | 33.2% |  | 
4 | Cc1ccc(CNC(=O)c2cccc(NC(=O)/C=C/c3cn(C(=O)OC(C)(C)C)c4ccccc34)c2)o1 [5j] |  | suppress the viral particle production | 3.4 µM | 7.4 µM | 1.1 µM | 9.4 µM | > 100 µM |  |  | 
5 | CC(C)CCn1cc(/C=C/C(=O)N(NC(=O)c2cccc(F)c2)C(C)C)c2ccccc21 [8h] |  | suppress the viral particle production | > 10 µM | > 10 µM | 6.7 µM |  | 20.4 µM | 71.2% |  | 
6 | CC(C)CCn1cc(/C=C/C(=O)N(NC(=O)c2ccc(F)cc2)C(C)C)c2ccccc21 [8i] |  | suppress the viral particle production | > 10 µM | > 10 µM | 5.1 µM |  | 2.1 µM | 94.8% |  | 
7 | CC(C)=CCn1cc(/C=C/C(=O)N(NC(=O)c2cccc(F)c2)C(C)C)c2ccccc21 [8u] |  | suppress the viral particle production | > 10 µM | > 10 µM | > 10 µM |  | 1.5 µM | 55.7% |  | 
8 | O=C(c1ccc2nc(COc3ccc(C45CC6CC(CC(C6)C4)C5)cc3)[nH]c2c1)N1CCCCC1 [10e] |  |  | > 10 µM |  | > 10 µM | 27.5 µM |  |  |  | 
9 | O=C(Nc1ccccc1)c1ccc2nc(COc3ccc(C45CC6CC(CC(C6)C4)C5)cc3)[nH]c2c1 [10f] |  |  | > 10 µM |  | > 10 µM | > 50 µM |  |  |  | 
10 | O=C(NCc1ccccc1)c1ccc2nc(COc3ccc(C45CC6CC(CC(C6)C4)C5)cc3)[nH]c2c1 [10h] |  |  | > 10 µM |  | < 10 µM | > 50 µM |  |  | 7.7 µM | 
11 | O=C(NCc1ccccn1)c1ccc2nc(COc3ccc(C45CC6CC(CC(C6)C4)C5)cc3)[nH]c2c1 [10i] |  |  | 3.9 µM |  |  | 20 µM |  |  |  | 
12 | COC(=O)N[C@H](C(=O)N1CCC[C@H]1c1nc(-c2ccc(-c3ccc(-c4c[nH]c([C@@H]5CCCN5C(=O)[C@@H](NC(=O)OC)C(C)C)n4)cc3)cc2)c[nH]1)C(C)C [Daclatasvir, reference compound] |  |  |  |  |  |  |  |  |  | able to inhibit expression of viral proteins
